Several values for one entry are separate records, joined by “and”; a condition that tells them apart may be missing. Equal values may be shown once. Inconclusive results and toxic doses are left out.

For this assay, the system named is L1210 leukemia ip in BDF1 mice, survival T/C. The assay can be described thus: NCI In Vivo Anticancer Drug Screen. Data for tumor model L1210 Leukemia (intraperitoneal) in B6D2F1 (BDF1) mice. The note with it: endpoint: mean survival time, higher = longer survival. The method in brief: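 Each compound was tested against a transplantable tumor grown in mice. The endpoint was survival, with treated animals benchmarked against vehicle controls as a simple ratio.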

[1] abbreviates: dose: 100.0 mg/kg/injection, schedule: Q01DX001 (ip), vehicle: saline.
The mark [2] stands for this setting: dose: 200.0 mg/kg/injection, schedule: Q01DX001 (ip), vehicle: saline.
Where [3] appears, read: dose: 400.0 mg/kg/injection, schedule: Q01DX001 (ip), vehicle: saline.
Where [4] appears, read: dose: 100.0 mg/kg/injection, schedule: Q01DX009 (ip), vehicle: Klucel (hydroxypropylcellulose) (HPC).
[5] abbreviates: dose: 100.0 mg/kg/injection, schedule: Q04DX003 (ip), vehicle: Klucel (hydroxypropylcellulose) (HPC).
Where [6] appears, read: dose: 200.0 mg/kg/injection, schedule: Q04DX003 (ip), vehicle: Klucel (hydroxypropylcellulose) (HPC).
Where [7] appears, read: dose: 400.0 mg/kg/injection, schedule: Q04DX003 (ip), vehicle: Klucel (hydroxypropylcellulose) (HPC).
The mark [8] stands for this setting: dose: 50.0 mg/kg/injection, schedule: Q01DX001 (sc), vehicle: steriod suspending solution.
The mark [9] stands for this setting: dose: 100.0 mg/kg/injection, schedule: Q01DX001 (sc), vehicle: steriod suspending solution.
Where [10] appears, read: dose: 200.0 mg/kg/injection, schedule: Q01DX001 (sc), vehicle: steriod suspending solution.
Setting [11] is: dose: 400.0 mg/kg/injection, schedule: Q01DX001 (sc), vehicle: steriod suspending solution.
Where [12] appears, read: dose: 100.0 mg/kg/injection, schedule: Q01DX001 (ip), vehicle: saline with Tween-80.
[13] abbreviates: dose: 200.0 mg/kg/injection, schedule: Q01DX001 (ip), vehicle: saline with Tween-80.
The mark [14] stands for this setting: dose: 400.0 mg/kg/injection, schedule: Q01DX001 (ip), vehicle: saline with Tween-80.
Setting [15] is: dose: 100.0 mg/kg/injection, schedule: Q01DX009 (ip), vehicle: saline.
Setting [16] is: dose: 100.0 mg/kg/injection, schedule: Q04DX003 (ip), vehicle: saline.
The mark [17] stands for this setting: dose: 200.0 mg/kg/injection, schedule: Q01DX009 (ip), vehicle: saline.
[18] abbreviates: dose: 200.0 mg/kg/injection, schedule: Q04DX003 (ip), vehicle: saline.
Where [19] appears, read: dose: 400.0 mg/kg/injection, schedule: Q01DX009 (ip), vehicle: saline.
The mark [20] stands for this setting: dose: 400.0 mg/kg/injection, schedule: Q04DX003 (ip), vehicle: saline.

Consider `O=[N+]([O-])c1ccc(P(=O)(O)O)cc1`, for which the T/C by setting is: (dose: 50.0 mg/kg/injection, schedule: Q01DX001 (ip), vehicle: saline) 103 % of control; under setting [1], 101 % of control; under setting [2], 107 % of control; under setting [3], 115 % of control.
As for `CCC(C)(c1ccc(O)cc1)c1ccc(O)cc1`, the T/C (dose: 100.0 mg/kg/injection, schedule: Q04DX002 (ip), vehicle: saline) was 103 % of control; the T/C (dose: 200.0 mg/kg/injection, schedule: Q04DX002 (ip), vehicle: saline) was 97 % of control; the T/C (dose: 400.0 mg/kg/injection, schedule: Q04DX002 (ip), vehicle: saline) was 103 % of control.
`N#Cc1ccc(NC(=O)COc2cccc(Cl)c2)cc1`: the T/C (dose: 37.5 mg/kg/injection, schedule: Q01DX001 (ip), vehicle: saline with Tween-80) is 95 % of control and the T/C (dose: 150.0 mg/kg/injection, schedule: Q01DX001 (ip), vehicle: saline with Tween-80) was 92 % of control.
For `O=C(CBr)NCC(S)c1ccc(Cl)cc1` (stereo not drawn), the T/C reads like this: (dose: 50.0 mg/kg/injection, schedule: Q01DX009 (ip), vehicle: Klucel (hydroxypropylcellulose) (HPC)) 97 % of control; under setting [4], 95 % of control; under setting [5], 93 % of control; under setting [6], 88 % of control; under setting [7], 102 % of control.
On to `Cc1ccc(NC(=O)Nc2ccccc2C)c(C)c1`, for which the T/C was 93 % of control under setting [4]; 103 % of control under setting [5]; 90 % of control (dose: 200.0 mg/kg/injection, schedule: Q01DX009 (ip), vehicle: Klucel (hydroxypropylcellulose) (HPC)); 91 % of control under setting [6]; 96 % of control under setting [7].
In the case of `CC(=O)C1CCC2C3CCC4=CC(=O)CCC4(C)C3(C)C(=O)CC12C` (stereo not drawn), the T/C was 102 % of control and 105 % of control under setting [8]; 102 % of control and 107 % of control under setting [9]; 105 % of control under setting [10]; 105 % of control and 96 % of control under setting [11].
`COc1cc(C(=O)N(C)C2CCCCC2)cc(OC)c1OC`: the T/C runs as follows: (dose: 100.0 mg/kg/injection, schedule: Q04DX003 (ip), vehicle: saline with Tween-80) 98 % of control; (dose: 200.0 mg/kg/injection, schedule: Q04DX003 (ip), vehicle: saline with Tween-80) 98 % of control; (dose: 400.0 mg/kg/injection, schedule: Q04DX003 (ip), vehicle: saline with Tween-80) 102 % of control.
Take `COc1cc(Cl)ccc1NC(=O)C(O)C(O)C(O)C(O)CO` (stereo not drawn): the T/C is, setting by setting: (dose: 100.0 mg/kg/injection, schedule: Q01DX001 (ip), vehicle: other) 97 % of control; (dose: 100.0 mg/kg/injection, schedule: Q01DX009 (ip), vehicle: other) 100 % of control and 103 % of control; (dose: 100.0 mg/kg/injection, schedule: Q04DX002 (ip), vehicle: other) 98 % of control and 103 % of control; (dose: 100.0 mg/kg/injection, schedule: Q04DX003 (ip), vehicle: carboxymethylcellulose (CMC)) 103 % of control; (dose: 200.0 mg/kg/injection, schedule: Q01DX001 (ip), vehicle: other) 90 % of control; (dose: 200.0 mg/kg/injection, schedule: Q01DX009 (ip), vehicle: other) 94 % of control and 97 % of control. The T/C by setting is: (dose: 200.0 mg/kg/injection, schedule: Q04DX002 (ip), vehicle: other) 98 % of control and 92 % of control; (dose: 200.0 mg/kg/injection, schedule: Q04DX003 (ip), vehicle: carboxymethylcellulose (CMC)) 100 % of control; (dose: 400.0 mg/kg/injection, schedule: Q01DX001 (ip), vehicle: other) 101 % of control; (dose: 400.0 mg/kg/injection, schedule: Q01DX009 (ip), vehicle: other) 95 % of control and 97 % of control; (dose: 400.0 mg/kg/injection, schedule: Q04DX002 (ip), vehicle: other) 103 % of control and 113 % of control; (dose: 400.0 mg/kg/injection, schedule: Q04DX003 (ip), vehicle: carboxymethylcellulose (CMC)) 103 % of control.
As to `O=[N+]([O-])c1ccc(N/N=C/c2ccc(/C=N/Nc3ccc([N+](=O)[O-])cc3)cc2)cc1`, the T/C was 116 % of control (dose: 15.0 mg/kg/injection, schedule: Q01DX Z (ip), vehicle: carboxymethylcellulose (CMC)); 104 % of control (dose: 30.0 mg/kg/injection, schedule: Q01DX Z (ip), vehicle: carboxymethylcellulose (CMC)); 98 % of control and 106 % of control (dose: 60.0 mg/kg/injection, schedule: Q01DX Z (ip), vehicle: carboxymethylcellulose (CMC)); 96 % of control and 98 % of control (dose: 120.0 mg/kg/injection, schedule: Q01DX Z (ip), vehicle: carboxymethylcellulose (CMC)); 98 % of control (dose: 240.0 mg/kg/injection, schedule: Q01DX Z (ip), vehicle: carboxymethylcellulose (CMC)); 103 % of control (dose: 240.0 mg/kg/injection, schedule: Q01DX Z (oral), vehicle: carboxymethylcellulose (CMC)). The T/C runs as follows: (dose: 480.0 mg/kg/injection, schedule: Q01DX Z (ip), vehicle: carboxymethylcellulose (CMC)) 95 % of control; (dose: 480.0 mg/kg/injection, schedule: Q01DX Z (oral), vehicle: carboxymethylcellulose (CMC)) 103 % of control; (dose: 960.0 mg/kg/injection, schedule: Q01DX Z (oral), vehicle: carboxymethylcellulose (CMC)) 103 % of control.
With `C[P+](C)(c1ccccc1)c1ccccc1`, the T/C was 108 % of control (dose: 3.12 mg/kg/injection, schedule: Q01DX009 (ip), vehicle: saline with Tween-80); 101 % of control (dose: 6.25 mg/kg/injection, schedule: Q01DX009 (ip), vehicle: saline with Tween-80); 97 % of control (dose: 12.5 mg/kg/injection, schedule: Q01DX009 (ip), vehicle: saline with Tween-80); 102 % of control (dose: 12.5 mg/kg/injection, schedule: Q04DX003 (ip), vehicle: saline with Tween-80).
As to `COc1ccc2c(c1C)C(=O)c1ccccc1C2`, the T/C under setting [12] is 93 % of control, the T/C under setting [13] is 101 % of control and the T/C under setting [14] is 90 % of control.
In the case of `CC(=O)O[C@H]1CC[C@H]2[C@@H]3CC[C@H]4CC=C(C#N)C[C@]4(C)[C@H]3CC[C@]12C`, the T/C by setting is: under setting [8], 107 % of control; under setting [9], 104 % of control; under setting [10], 102 % of control; under setting [11], 101 % of control.
As to `COc1cc(C=NC(CO)C(=O)O)ccc1O.COc1cc(C=NC(CO)C(=O)O)ccc1O.[Fe]` (stereo not drawn), the T/C under setting [15] is 92 % of control; the T/C under setting [16] is 88 % of control; the T/C under setting [17] is 92 % of control; the T/C under setting [18] was 95 % of control; the T/C under setting [19] was 95 % of control; the T/C under setting [20] was 93 % of control.
Take `CC(C)C(C(=O)O)N(C)C(=O)c1cnc2ccccc2n1` (stereo not drawn): the T/C is 105 % of control under setting [1], 109 % of control under setting [2] and 103 % of control under setting [3].
For `Nc1ncnc2c1c(C1=NCCCN1)cn2C1OC(CO)C(O)C1O` (stereo not drawn), the T/C by setting is: (dose: 12.5 mg/kg/injection, schedule: Q01DX005 (ip), vehicle: saline) 117 % of control; (dose: 50.0 mg/kg/injection, schedule: Q01DX005 (ip), vehicle: saline) 151 % of control.
With `COC(OC)OC`, the T/C is, setting by setting: under setting [15], 104 % of control; under setting [16], 100 % of control; under setting [17], 101 % of control; under setting [18], 105 % of control; under setting [19], 100 % of control; under setting [20], 105 % of control.
Take `CC1=Nc2c(c(C(C)(C)C)c3nc(C)oc3c2C(C)(C)C)C1`: the T/C was 97 % of control under setting [12], 94 % of control under setting [13] and 94 % of control under setting [14].
